# Test results reported in article PMC5796035 (2017).
# Legend:
# [1] = test system: R12.51 (DNA, aptamer) TGTACCGTCTGAGCGATTCGTACAGTTTCTGGAGGACTGGGCGGGGTGACGGTTATGAGCCAGTCAGTGTTAAGGAGTGC; assay: competitive elution from immobilised fipronil, fluorescence; conditions: 100 mM NaCl, 2 mM MgCl2, 20 mM Tris-HCl
# [2] = test system: R12.51 (DNA, aptamer) TGTACCGTCTGAGCGATTCGTACAGTTTCTGGAGGACTGGGCGGGGTGACGGTTATGAGCCAGTCAGTGTTAAGGAGTGC; assay: plate-based fluorescence saturation binding; conditions: 100 mM NaCl, 2 mM MgCl2; immobilised compound (maleic anhydride plate); 20 mM Tris-HCl; mean of four assays (55, 35, 38, 64 nM)
structure (smiles),measurement,setting,value
N#Cc1nn(-c2c(Cl)cc(C(F)(F)F)cc2Cl)c(N)c1SC(F)(F)F,binding,"[1]; 1 µM, displaces MRE from immobilised fipronil, fipronil/compound ratio 0.89",yes
CCNc1nc(Cl)nc(NC(C)C)n1,binding,"[1]; 1 µM, fipronil/compound ratio 1.23 (4.80 at 200 nM in river water/buffer)",weak
N#Cc1nn(-c2c(Cl)cc(C(F)(F)F)cc2Cl)c(N)c1S(=O)C(F)(F)F (centres unmarked),Kd,[2],48 ± 8 nM
same,binding,"[1]; free compound 1 µM, normalized fluorescence 2.413 (no target 0.247)",yes
CCC(=O)Nc1ccc(Cl)c(Cl)c1,binding,"[1]; 1 µM, fipronil/compound ratio 1.52 (5.05 at 200 nM in river water/buffer)",weak
N#Cc1nn(-c2c(Cl)cc(C(F)(F)F)cc2Cl)c(N)c1C(F)(F)F,binding,"[1]; 1 µM, displaces MRE from immobilised fipronil, fipronil/compound ratio 1.16",yes
CCS(=O)c1c(C#N)nn(-c2c(Cl)cc(C(F)(F)F)cc2Cl)c1N (centres unmarked),binding,"[1]; 1 µM, displaces MRE from immobilised fipronil, fipronil/compound ratio 1.10",yes
N#Cc1nn(-c2c(Cl)cc(C(F)(F)F)cc2Cl)c(N)c1S(=O)(=O)C(F)(F)F,binding,"[1]; 1 µM, displaces MRE from immobilised fipronil, fipronil/compound ratio 1.07",yes
